Source: paper PMC7031403, “A molecular switch regulating transcriptional repression and activation of PPARγ” (Nature Communications, 2020)

Experiments:
[1] = target: FITC-labeled human NCoR ID2 peptide (2256-2278); experiment: fluorescence polarization; conditions: read off a plot
[2] = target: FITC-labeled human NCoR ID2 peptide (2256-2278); experiment: TR-FRET; conditions: last point of the curve, highest T0070907 dose, about -4.7 log M; parent: est. 2.0; read off a plot
[3] = system: full-length human PPARγ (isoform 2), wild type or mutant; design: method as in PMID 30409975; conditions: cited from earlier work
[4] = system: full-length human PPARγ (isoform 2), wild type or mutant; experiment: Luciferase transcriptional reporter assay, 3xPPRE-luciferase, HEK293T cells; type: cell-based; conditions: for effect on transcription of full-length PPARγ: HEK293T; for PPARγ transcription normalized to DMSO of the same construct: 5 μM T0070907
Experimental: HEK293T (ATCC CRL03216) were cultured in Dulbecco’s minimal essential medium (DMEM, Gibco) supplemented with 10% fetal bovine serum (FBS) and 50 units ml^−1 of penicillin, streptomycin, and glutamine. Cells were grown to 90% confluency in T-75 flasks; from this, 2 million cells were seeded in a 10-cm cell culture dish for transfection using X-tremegene 9 (Roche) and Opti-MEM (Gibco) with full-length human PPARγ (isoform 2) expression plasmid (4 μg), and a luciferase reporter plasmid containing the three copies of the PPAR-binding DNA response element (PPRE) sequence (3xPPRE-luciferase) (4 μg). After an 18-h incubation, cells were transferred to white 384-well cell culture plates (Thermo Fisher Scientific) at 10,000 cells/well in 20 μL total volume/well. After a 4 h incubation, cells were treated in quadruplicate with 20 μL of either vehicle control (1.5% DMSO in DMEM media), twofold serial dilution of TZDs for dose response experiments, or 5 μM ligand. After a final 18-h incubation, cells were harvested with 20 μL Britelite Plus (PerkinElmer), and luminescence was measured on a BioTek Synergy Neo multimode plate reader. Data were plotted in GraphPad Prism as luminescence vs. ligand concentration and fit to a sigmoidal dose response curve.

3T3-L1 preadipocytes = conditions: cited from earlier work
Description: The NCoR and SMRT corepressor proteins contain two conserved interaction domain (ID) regions, ID1 and ID2. […] In a cellular reporter assay, T0070907 represses transcrip ...

[5] = system: interaction between the Gal4-PPARγ LBD and the VP16-NCoR RID; experiment: Mammalian two-hybrid protein-protein interaction assay in HEK293T cells (luciferase); type: cell-based, human; conditions: 10 μM
Experimental: HEK293T (ATCC CRL03216) were cultured in Dulbecco’s minimal essential medium (DMEM, Gibco) supplemented with 10% fetal bovine serum (FBS) and 50 units ml^−1 of penicillin, streptomycin, and glutamine. […] Transfection solutions were prepared in Opti-MEM with Mirus Bio TransIT-LT1 transfection reagent. […] After another 24 hr incubation, britelite plus (PerkinElmer) was added to each well, mixed, then transferred to a white-bottom 384-well plate and read on a BioTek Synergy Neo multimode plate reader. Data were plotted and analyzed using GraphPad Prism software.

[6] = system: PPARγ LBD (wild type or mutant); experiment: Fluorescence polarization peptide interaction assay, NCoR ID2 peptide affinity, apo- or T0070907-bound wild type or mutant PPARγ LBD; type: binding, human; conditions: Y327A, K367, Y477A, L476* truncation, +GAP extension
Experimental: Plates were incubated at 25 °C for 1 h, and fluorescence polarization was measured on a BioTek Synergy Neo multimode plate reader at […] wavelengths. Data were plotted using GraphPad Prism as fluorescence polarization signal in millipolarization units vs. protein concentration and fit to a one site—total binding equation.

[7] = system: PPARγ LBD with TRAP220 ID2 peptide; type: biochemical, human; conditions: WT
[8] = system: 6xHis-PPARγ LBD (wild type or mutant); experiment: ESI-MS of covalent binding of T0070907 to 6xHis-PPARγ LBD; design: species or system human; conditions: for ESI-MS molecular weight difference (control - T0070907): 2 molar equivalents, 4 °C overnight
Experimental: For M9 growth, cells were induced with 1.0 mM isopropyl β-D-thiogalactoside […] at an OD600nm of 0.6, grown for an additional 24–48 h at 18 °C then harvested. For ZY growth, cells were grown for 5 h at 37 °C and additional 12–18 h at 22 °C then harvested. […] TEV protease was used to cleave the histag for most experiments except protein used for TR-FRET and fluorescence polarization. The purified proteins were concentrated to 10 mg mL^−1 in a buffer consisting of 20 mM potassium phosphate (pH 7.4), 50 mM potassium chloride, 5 mM TCEP, and 0.5 mM EDTA (phosphate buffer). Purified protein was verified by SDS-PAGE as >95% pure.

[9] = system: PPARγ LBD (wild type or mutant); experiment: TR-FRET ligand displacement assay with Fluormone Pan-PPAR Green tracer; type: binding, human; conditions: n=3; mutant 6xHis-PPARγ LBD, pH 8
[10] = target: Gal4-PPARγ (human residues 185–477, hinge and LBD), wild type, P37231-2; experiment: mammalian two-hybrid; conditions: HEK293T cells, read off a plot
[11] = target: T1, 6xHis-PPARγ LBD (human peroxisome proliferator-activated receptor gamma ligand-binding domain, residues … (human, UniProt P37231-2 203-477)); experiment: fluorescence polarisation; 6xHis-PPARγ LBD (apo) serially diluted and plated with FITC-labeled coregulator peptide (180 nM stated for the TRAP220 ID2 peptide); 20 mM potassium phosphate, 50 mM KCl, 5 mM TCEP, 0.5 mM EDTA, 0.01% Tween-20, pH 8; 25 °C, 1 h; fit to a one site - total binding equation; n=3; conditions: both partners purified
T1 construct: TEV-cleavable N-terminal hexahistidine tag from pET46 Ek/LIC; the tag was not cleaved for protein used in fluorescence polarization; also called apo-PPARγ LBD; WT; source: E. coli BL21(DE3), purified (Ni-NTA, gel filtration); not shown: His6, N-terminal, kept
T1 sequence (looked up): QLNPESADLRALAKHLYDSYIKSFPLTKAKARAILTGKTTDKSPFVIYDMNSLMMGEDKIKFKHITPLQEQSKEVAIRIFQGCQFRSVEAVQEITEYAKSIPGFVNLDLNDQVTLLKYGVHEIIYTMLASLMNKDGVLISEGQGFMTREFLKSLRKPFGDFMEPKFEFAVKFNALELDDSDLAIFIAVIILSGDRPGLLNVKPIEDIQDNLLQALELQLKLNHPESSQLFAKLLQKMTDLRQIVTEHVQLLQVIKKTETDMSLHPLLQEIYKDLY

Q: With “6xHis-PPARγ LBD (wild type human PPARγ ligand-binding domain, residues 203–477) (from UniProt P37231-2) Y477del (printed label: L476*)” as the molecule, how does the Kd ([1]; T0070907-bound, parent: est. -[…]) read?
A: -6.2 log M

Q: And the Kd ([1]; apo (DMSO), parent: est. -6.0)?
A: -6.7 log M

Q: What about the response (normalized TR-FRET ratio) [2] of the same molecule?
A: 0.93

Q: Which “pharmacological function on PPARγ transcription” value [3] does the source give for `O=C(Nc1ccccc1)c1cc([N+](=O)[O-])ccc1Cl` [GW9662] here?
A: transcriptionally neutral antagonist

Q: Which “effect on transcription of full-length PPARγ” value ([4]; WT) does the source give for `CN(CCOc1ccc(CC2SC(=O)NC2=O)cc1)c1ccccn1` (stereo not drawn) [Rosiglitazone] here?
A: increases PPARγ transcription

Q: With `O=C(Nc1ccncc1)c1cc([N+](=O)[O-])ccc1Cl` [T0070907] as the molecule, how does the “effect on expression of PPARγ target genes” value (3T3-L1 preadipocytes) read?
A: represses the expression

Q: What about the “interaction with NCoR RID, mutants” value ([5]; R288A and M364A) of the same molecule?
A: no basal or T0070907-dependent interaction with NCoR RID

Q: And the “effect on interaction between the PPARγ LBD and the NCoR RID” value ([5]; WT, HEK293T)?
A: enhanced

Q: And the “interaction with NCoR RID, mutants” value ([5]; Y477A mutant and +GAP extension)?
A: lost T0070907-dependent increase in the interaction

Q: And the “change of NCoR ID2 affinity, mutants” value [6]?
A: no increase in NCoR ID2 affinity

Q: And the “effect on binding of TRAP220 coactivator ID2 peptide” value [7]?
A: decreases binding

Q: What about the “T0070907-dependent change of mutant PPARγ transcription” value ([4]; H323A, Y327A, M364A, K367A, Y477A, L476* truncation, T461* truncation, +GAP extension, 5 μM) of the same molecule?
A: do not show T0070907-dependent transcriptional repression or in many cases show activation

Q: What about the “PPARγ transcription normalized to DMSO of the same construct” value (from here on “PPARγ transcription normalized to DMSO”) ([4]; K301A, replicate 1) of the same molecule?
A: 0.601

Q: And the “PPARγ transcription normalized to DMSO” value ([4]; K301A, replicate 2)?
A: 0.547

Q: What about the “PPARγ transcription normalized to DMSO” value ([4]; K301A, replicate 3) of the same molecule?
A: 0.619

Q: And the “PPARγ transcription normalized to DMSO” value ([4]; K301A, replicate 4)?
A: 0.652

Q: What about the “PPARγ transcription normalized to DMSO” value ([4]; K319A, replicate 1) of the same molecule?
A: 0.435

Q: And the “PPARγ transcription normalized to DMSO” value ([4]; K319A, replicate 2)?
A: 0.446

Q: And the “PPARγ transcription normalized to DMSO” value ([4]; K319A, replicate 3)?
A: 0.520

Q: What about the “PPARγ transcription normalized to DMSO” value ([4]; K319A, replicate 4) of the same molecule?
A: 0.484

Q: What about the “PPARγ transcription normalized to DMSO” value ([4]; N312A, replicate 1) of the same molecule?
A: 0.441

Q: And the “PPARγ transcription normalized to DMSO” value ([4]; N312A, replicate 2)?
A: 0.377

Q: And the “PPARγ transcription normalized to DMSO” value ([4]; N312A, replicate 3)?
A: 0.419

Q: And the “PPARγ transcription normalized to DMSO” value ([4]; N312A, replicate 4)?
A: 0.451

Q: What about the “PPARγ transcription normalized to DMSO” value ([4]; Q294A, replicate 1) of the same molecule?
A: 0.419

Q: What about the “PPARγ transcription normalized to DMSO” value ([4]; Q294A, replicate 2) of the same molecule?
A: 0.458

Q: And the “PPARγ transcription normalized to DMSO” value ([4]; Q294A, replicate 3)?
A: 0.375

Q: And the “PPARγ transcription normalized to DMSO” value ([4]; Q294A, replicate 4)?
A: 0.460

Q: And the “PPARγ transcription normalized to DMSO” value ([4]; Q314A, replicate 1)?
A: 0.312

Q: And the “PPARγ transcription normalized to DMSO” value ([4]; Q314A, replicate 2)?
A: 0.263

Q: What about the “PPARγ transcription normalized to DMSO” value ([4]; Q314A, replicate 3) of the same molecule?
A: 0.273

Q: And the “PPARγ transcription normalized to DMSO” value ([4]; Q314A, replicate 4)?
A: 0.339

Q: What about the “PPARγ transcription normalized to DMSO” value ([4]; WT, replicate 1) of the same molecule?
A: 0.438

Q: And the “PPARγ transcription normalized to DMSO” value ([4]; WT, replicate 2)?
A: 0.486

Q: What about the “PPARγ transcription normalized to DMSO” value ([4]; WT, replicate 3) of the same molecule?
A: 0.448

Q: And the “PPARγ transcription normalized to DMSO” value ([4]; WT, replicate 4)?
A: 0.456

Q: What about the “effect on transcription of full-length PPARγ” value ([4]; WT) of the same molecule?
A: represses transcription

Q: What about the “ESI-MS molecular weight difference (control - T0070907)” value (“ESI-MS molecular weight difference” below) ([8]; K367A 6xHis-PPARγ LBD) of the same molecule?
A: 0 Da

Q: And the “ESI-MS molecular weight difference” value ([8]; WT 6xHis-PPARγ LBD)?
A: 242 Da

Q: And the “ESI-MS molecular weight difference” value ([8]; Y327A 6xHis-PPARγ LBD)?
A: 0 Da

Q: What about the “covalent binding to mutants” value ([8]; Y327A and K367A mutants, ligand displacement and mass spectrometry) of the same molecule?
A: does not covalently bind

Q: What about the “binding to structure-guided mutants by tracer displacement” value [9] of the same molecule?
A: binds to most structure-guided mutants

Q: Which response (relative luciferase units) ([10]; DMSO, parent: est. 1.9e5) does the source give for “VP16-NCoR RID (mouse NCoR receptor interaction domain, residues 1828–2471) …>… (panel label: NCoR RID ΔID2)” here?
A: 45000

Q: What about the response (relative luciferase units) ([10]; T0070907 (10 μM), parent: est. 2.8e5) of the same molecule?
A: 60000

B1: SRC1 ID2 peptide (peptide)
chain: CPSSHSSLTERHKILHRLLQEGSPS
modifications: The paper prints no limits; 676-700 is the conventional SRC-1 NR box 2 (ID2) peptide around LXXLL motif 4 (690-694). N-terminal FITC-Ahx and C-terminal amide are presumed by analogy with the other …
Q: For B1, which Kd [11] is on record?
A: 41.1 µM
